System: child with severe nasal congestion due to a cold
Assay: Severe nasal congestion due to a cold, child
Format: in vivo, human
Settings: every four hours
Description: A child presents with severe nasal congestion due to a cold. […] The child then supplements the oral medication by using the composition of this Example, one spray into each nostril, following each dose of the oral medication.

CN[C@@H](C)[C@@H](O)c1ccccc1 [pseudophedrine]
relief of nasal congestion, oral medication alone: limited relief

From patent US20070140978A1, “Adrenergic complement inhaler” (priority 2004, published 2007)
